US20130303509A1, “NAMPT INHIBITORS” (AbbVie Inc., priority 2012, published 2013)

Tested on: PC3 cells
Test: NAMPT Cell Proliferation Assay
Assay type: cell-based
Details: Homo sapiens, PC-3, 120 h, 5 days incubation, cell viability by Cell Titer Glo
Outline: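 Seeded at 500 cells/well in RPMI with 10% heat-inactivated FBS and left to attach overnight at 37° C, 5% CO2. Compounds were added as 10-fold dilutions […] for 5 days, then viability was read by CellTiter-Glo. IC50s came from sigmoidal fits of percent inhibition.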

Compared with O=C(Nc1ccc(O[C@@H]2CCN(C(=O)CC(F)(F)F)C2)cc1)C1CN(c2cccnn2)C1 [Example 521, 1-(pyridazin-3-yl)-N-(4-{[(3R)-1-(3,3,3-trifluoropropanoyl)pyrrolidin-3-yl]oxy}phenyl)azetidine-3-carboxamide], O=C(Nc1ccc(C2CCN(C(=O)CC(F)(F)F)CC2)cc1)C1CN(c2cccnn2)C1 [Example 332, 1-(pyridazin-3-yl)-N-{4-[1-(3,3,3-trifluoropropanoyl)piperidin-4-yl]phenyl}azetidine-3-carboxamide] is 4.8-fold lower in IC50: 4.72 nM for the first, 0.99 nM for the second.

Compared with O=C(Nc1ccc(C2CCN(C(=O)CCC(F)(F)F)CC2)cc1)C1CN(c2cccnn2)C1 [Example 433, 1-(pyridazin-3-yl)-N-{4-[1-(4,4,4-trifluorobutanoyl)piperidin-4-yl]phenyl}azetidine-3-carboxamide], CSCC(=O)N1CCC(c2ccc(NC(=O)C3CN(c4cccnn4)C3)cc2)CC1 [Example 334, N-(4-{1-[(methylsulfanyl)acetyl]piperidin-4-yl}phenyl)-1-(pyridazin-3-yl)azetidine-3-carboxamide] is 5.9-fold lower in IC50: 5.77 nM for the first, 0.97 nM for the second. The second is the more potent here.

First: O=C(NC1CN(c2cccnn2)C1)c1ccc(C2CCN(C(=O)c3cccc(F)c3)CC2)s1 [Example 814, 5-[1-(3-fluorobenzoyl)piperidin-4-yl]-N-[1-(pyridazin-3-yl)azetidin-3-yl]thiophene-2-carboxamide]
Second: O=C(N[C@H]1CCN(c2cccnn2)C1)c1ccc(C2CCN(C(=O)c3ccccc3)CC2)s1 [Example 764, 5-(1-benzoylpiperidin-4-yl)-N-[(3S)-1-(pyridazin-3-yl)pyrrolidin-3-yl]thiophene-2-carboxamide]
The IC50 of the first is 3.7-fold higher: 81.9 nM for the first, 22.1 nM for the second.

Going from CC(C)n1cc(-c2ccc(NC(=O)[C@H]3CCN(c4cccnn4)C3)cc2)cn1 [Example 770, (3S)-N-{4-[1-(propan-2-yl)-1H-pyrazol-4-yl]phenyl}-1-(pyridazin-3-yl)pyrrolidine-3-carboxamide] to Cc1ccc(C(=O)N2CCC(c3ccc(NC(=O)[C@H]4CCN(c5cccnn5)C4)cc3)CC2)cc1 [Example 631, (3S)-N-{4-[1-(4-methylbenzoyl)piperidin-4-yl]phenyl}-1-(pyridazin-3-yl)pyrrolidine-3-carboxamide], the IC50 falls from 138 nM to 9.58 nM (14-fold).

First: O=C(Nc1ccc(C2CCN(C(=O)[C@@H]3CCCO3)CC2)cc1)C1CN(c2cccnc2)C1 [Example 10, 1-(pyridin-3-yl)-N-(4-{1-[(2S)-tetrahydrofuran-2-ylcarbonyl]piperidin-4-yl}phenyl)azetidine-3-carboxamide]
Second: O=C(Nc1ccc(C2CCN(C(=O)C3CCC3)CC2)cc1)C1CN(c2cccnn2)C1 [Example 417, N-{4-[1-(cyclobutylcarbonyl)piperidin-4-yl]phenyl}-1-(pyridazin-3-yl)azetidine-3-carboxamide]
The IC50 of the first is 3.5-fold lower: 1.84 nM for the first, 6.45 nM for the second. The first is the more potent here.

First: O=C(Nc1ccc(O[C@@H]2CCN(C(=O)c3ccc(F)cc3)C2)cc1)C1CN(c2cccnn2)C1 [Example 489, N-(4-{[(3R)-1-(4-fluorobenzoyl)pyrrolidin-3-yl]oxy}phenyl)-1-(pyridazin-3-yl)azetidine-3-carboxamide]
Second: O=C(Nc1ccc(O[C@H]2CCN(C(=O)c3cc(F)cc(F)c3)C2)cc1)[C@H]1CCN(c2cccnn2)C1 [Example 826, (3S)—N-(4-{[(3S)-1-(3,5-difluorobenzoyl)pyrrolidin-3-yl]oxy}phenyl)-1-(pyridazin-3-yl)pyrrolidine-3-carboxamide]
The IC50 of the first is 47-fold lower: 2.07 nM for the first, 98.3 nM for the second.

Compared with O=C(Nc1ccc(OC2CCN(C(=O)C3CCCO3)CC2)cc1)C1CN(c2cccnn2)C1 (centres unmarked) [Example 221, 1-(pyridazin-3-yl)-N-(4-{[1-(tetrahydrofuran-2-ylcarbonyl)piperidin-4-yl]oxy}phenyl)azetidine-3-carboxamide], O=C(Nc1ccc(S(=O)(=O)C2CCN(C(=O)C3CC3)CC2)cc1)C1CN(c2cccnn2)C1 [Example 592, N-(4-{[1-(cyclopropylcarbonyl)piperidin-4-yl]sulfonyl}phenyl)-1-(pyridazin-3-yl)azetidine-3-carboxamide] is 69-fold higher in IC50: 8.99 nM for the first, 620 nM for the second. The first is the more potent here.

First: Cc1cc(C(=O)N2CCC(c3ccc(NC(=O)C4CN(c5cccnn5)C4)cc3)CC2)c(C)o1 [Example 426, N-(4-{1-[(2,5-dimethylfuran-3-yl)carbonyl]piperidin-4-yl}phenyl)-1-(pyridazin-3-yl)azetidine-3-carboxamide]
Second: Cc1cc(C)cc(C(=O)N2CCC(c3ccc(NC(=O)[C@H]4CCN(c5cccnn5)C4)cc3)CC2)c1 [Example 693, (3S)-N-{4-[1-(3,5-dimethylbenzoyl)piperidin-4-yl]phenyl}-1-(pyridazin-3-yl)pyrrolidine-3-carboxamide]
The IC50 of the first is 6.6-fold lower: 2.07 nM for the first, 13.6 nM for the second.

Compared with CC(C)Cn1cc(-c2ccc(C(=O)NC3CN(c4cccnn4)C3)s2)cn1 [Example 315, 5-[1-(2-methylpropyl)-1H-pyrazol-4-yl]-N-[1-(pyridazin-3-yl)azetidin-3-yl]thiophene-2-carboxamide], CC(C)Cn1cc(-c2ccc(C(=O)N[C@H]3CCN(c4cccnn4)C3)o2)cn1 [Example 747, 5-[1-(2-methylpropyl)-1H-pyrazol-4-yl]-N-[(3S)-1-(pyridazin-3-yl)pyrrolidin-3-yl]furan-2-carboxamide] is 68-fold higher in IC50: 86.8 nM for the first, 5920 nM for the second.

Compared with O=C(Nc1ccc(O[C@@H]2CCN(C(=O)c3ccccc3Cl)C2)cc1)C1CN(c2ccnnc2)C1 [Example 442, N-(4-{[(3R)-1-(2-chlorobenzoyl)pyrrolidin-3-yl]oxy}phenyl)-1-(pyridazin-4-yl)azetidine-3-carboxamide], O=C(Nc1ccc(OC2CCN(C(=O)c3ccccc3Cl)CC2)cc1)C1CN(c2ccnnc2)C1 [Example 279, N-(4-{[1-(2-chlorobenzoyl)piperidin-4-yl]oxy}phenyl)-1-(pyridazin-4-yl)azetidine-3-carboxamide] is 1.6-fold higher in IC50: 6.25 nM for the first, 9.72 nM for the second. The first is the more potent here.

Going from Cc1ncccc1N1CC(C(=O)Nc2ccc(C3CCN(C(=O)C(C)C)CC3)cc2)C1 [Example 29, N-{4-[1-(2-methylpropanoyl)piperidin-4-yl]phenyl}-1-(2-methylpyridin-3-yl)azetidine-3-carboxamide] to Cc1ccsc1C(=O)N1CCC(c2ccc(NC(=O)C3CN(c4cccnc4C)C3)cc2)CC1 [Example 171, 1-(2-methylpyridin-3-yl)-N-(4-{1-[(3-methylthiophen-2-yl)carbonyl]piperidin-4-yl}phenyl)azetidine-3-carboxamide], the IC50 falls from 135 nM to 68.1 nM (2-fold). The second is the more potent here.

Compared with O=C(Nc1ccc(O[C@@H]2CCN(C(=O)c3ccccc3F)C2)cc1)C1CN(c2ccnnc2)C1 [Example 472, N-(4-{[(3R)-1-(2-fluorobenzoyl)pyrrolidin-3-yl]oxy}phenyl)-1-(pyridazin-4-yl)azetidine-3-carboxamide], O=C(Nc1ccc(OC2CCN(C(=O)c3ccc(F)cc3F)CC2)cc1)C1CN(c2ccnnc2)C1 [Example 284, N-(4-{[1-(2,4-difluorobenzoyl)piperidin-4-yl]oxy}phenyl)-1-(pyridazin-4-yl)azetidine-3-carboxamide] is 10-fold higher in IC50: 6.56 nM for the first, 66.6 nM for the second. The first is the more potent here.

Going from CC(C)(C(=O)N1CCC(c2ccc(NC(=O)C3CN(c4ccnnc4)C3)cc2)CC1)c1ccccc1 [Example 546, N-{4-[1-(2-methyl-2-phenylpropanoyl)piperidin-4-yl]phenyl}-1-(pyridazin-4-yl)azetidine-3-carboxamide] to CC[C@H](C(=O)N1CCC(c2ccc(NC(=O)C3CN(c4cccnn4)C3)cc2)CC1)c1ccccc1 [Example 399, N-(4-{1-[(2S)-2-phenylbutanoyl]piperidin-4-yl}phenyl)-1-(pyridazin-3-yl)azetidine-3-carboxamide], the IC50 rises from 1.41 nM to 6.35 nM (4.5-fold). The first is the more potent here.

Compared with CC(C)Cn1cc(-c2ccc(C(=O)N[C@@H]3CCN(c4cnnc(Cl)c4Cl)C3)s2)cn1 [Example 618, N-[(3R)-1-(5,6-dichloropyridazin-4-yl)pyrrolidin-3-yl]-5-[1-(2-methylpropyl)-1H-pyrazol-4-yl]thiophene-2-carboxamide], O=C(Nc1ccc(C2CCN(C(=O)Cc3c(Cl)cccc3Cl)CC2)cc1)C1CN(c2cccnn2)C1 [Example 423, N-(4-{1-[(2,6-dichlorophenyl)acetyl]piperidin-4-yl}phenyl)-1-(pyridazin-3-yl)azetidine-3-carboxamide] is lower in IC50: greater than 10000 nM for the first, 0.38 nM for the second.

Going from O=C(Nc1ccc(OC2CCN(C(=O)CC(F)(F)F)CC2)cc1)C1CN(c2cccnc2)C1 [Example 55, 1-(pyridin-3-yl)-N-(4-{[1-(3,3,3-trifluoropropanoyl)piperidin-4-yl]oxy}phenyl)azetidine-3-carboxamide] to O=C(Nc1ccc(OC2CCN(C(=O)c3ccc(F)c(F)c3)CC2)cc1)C1CN(c2ccnnc2)C1 [Example 274, N-(4-{[1-(3,4-difluorobenzoyl)piperidin-4-yl]oxy}phenyl)-1-(pyridazin-4-yl)azetidine-3-carboxamide], the IC50 rises from 21.1 nM to 107 nM (5.1-fold). The first is the more potent here.

Going from O=C(Nc1ccc(S(=O)(=O)C2CCN(C(=O)Cc3cccc(F)c3)CC2)cc1)C1CN(c2cccnn2)C1 [Example 582, N-[4-({1-[(3-fluorophenyl)acetyl]piperidin-4-yl}sulfonyl)phenyl]-1-(pyridazin-3-yl)azetidine-3-carboxamide] to COc1ccc(C(=O)N2CCC(S(=O)(=O)c3ccc(NC(=O)C4CN(c5cccnn5)C4)cc3)CC2)cc1 [Example 566, N-(4-{[1-(4-methoxybenzoyl)piperidin-4-yl]sulfonyl}phenyl)-1-(pyridazin-3-yl)azetidine-3-carboxamide], the IC50 falls from 627 nM to 82.2 nM (7.6-fold). The second is the more potent here.

Going from Cc1ncccc1N1CC(C(=O)Nc2ccc(C3CCN(C(=O)c4ccccc4F)CC3)cc2)C1 [Example 150, N-{4-[1-(2-fluorobenzoyl)piperidin-4-yl]phenyl}-1-(2-methylpyridin-3-yl)azetidine-3-carboxamide] to Cc1ccc(C(=O)N2CCC(c3ccc(NC(=O)C4CN(c5cccnc5)C4)cc3)CC2)s1 [Example 126, N-(4-{1-[(5-methylthiophen-2-yl)carbonyl]piperidin-4-yl}phenyl)-1-(pyridin-3-yl)azetidine-3-carboxamide], the IC50 falls from 58.9 nM to 0.26 nM (230-fold).

In the case of Cc1cccc(C(=O)N2CCC(c3ccc(NC(=O)[C@H]4CCN(c5cccnn5)C4)cc3)CC2)c1 [Example 677, (3S)-N-{4-[1-(3-methylbenzoyl)piperidin-4-yl]phenyl}-1-(pyridazin-3-yl)pyrrolidine-3-carboxamide], the IC50 is reported as 9.3 nM.
